# Experimental data: patent publication US5622950A, “Pyrrolo-pyridine derivatives” (Merck, Sharp & Dohme Ltd., priority 1993, dated 1997)
# Assays:
# [1] = test system: spontaneous motor activity; test: Sedation: effects on spontaneous motor activity of rats in novel cages equipped with photocells (number of cage crossings); type: in vivo; conditions: rat
# Excerpt: Representative compounds according to the invention have been tested for their effects on spontaneous motor activity occasioned by placing rats in novel cages equipped with photocells in order to determine the number of cage crossings. This is an art-recognised model of the sedation potential of a given test compound.
# [2] = test system: apomorphine-induced stereotypy; test: Extrapyramidal disorders: effect on apomorphine-induced stereotypy in the rat; type: in vivo
# Excerpt: Representative compounds according to the invention have been tested for their effect on apomorphine-induced stereotypy in the rat. This is an art-recognised model of the potential to induce extrapyramidal side-effects.
# [3] = biological target: T1, human dopamine D4 receptor subtype (Homo sapiens, UniProt P21917); test: [3H]-Spiperone binding (displacement), human dopamine D4 receptor subtype; conditions: selectivity ratio from Ki values for D4 and D2 subtypes
# T1 sequence (P21917 1-419): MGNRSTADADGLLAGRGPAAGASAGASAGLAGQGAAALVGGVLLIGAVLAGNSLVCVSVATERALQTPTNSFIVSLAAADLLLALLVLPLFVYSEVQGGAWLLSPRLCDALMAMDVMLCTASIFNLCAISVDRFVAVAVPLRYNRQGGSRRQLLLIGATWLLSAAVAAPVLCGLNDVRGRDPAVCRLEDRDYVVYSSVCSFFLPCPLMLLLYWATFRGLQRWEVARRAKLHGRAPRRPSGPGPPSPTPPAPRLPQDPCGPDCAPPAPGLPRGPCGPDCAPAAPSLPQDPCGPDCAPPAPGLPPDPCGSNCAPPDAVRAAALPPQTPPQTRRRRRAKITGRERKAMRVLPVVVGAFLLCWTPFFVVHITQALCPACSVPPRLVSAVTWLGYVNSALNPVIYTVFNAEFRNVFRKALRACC
# [4] = biological target: T2, human dopamine D2 receptor subtype (Homo sapiens, UniProt P14416); test: [3H]-Spiperone binding (displacement), human dopamine D2 receptor subtype; conditions: human dopamine D2 receptor subtype expressed in clonal cell lines
# T2 construct: expressed in transfected cells
# T2 sequence (P14416 whole entry): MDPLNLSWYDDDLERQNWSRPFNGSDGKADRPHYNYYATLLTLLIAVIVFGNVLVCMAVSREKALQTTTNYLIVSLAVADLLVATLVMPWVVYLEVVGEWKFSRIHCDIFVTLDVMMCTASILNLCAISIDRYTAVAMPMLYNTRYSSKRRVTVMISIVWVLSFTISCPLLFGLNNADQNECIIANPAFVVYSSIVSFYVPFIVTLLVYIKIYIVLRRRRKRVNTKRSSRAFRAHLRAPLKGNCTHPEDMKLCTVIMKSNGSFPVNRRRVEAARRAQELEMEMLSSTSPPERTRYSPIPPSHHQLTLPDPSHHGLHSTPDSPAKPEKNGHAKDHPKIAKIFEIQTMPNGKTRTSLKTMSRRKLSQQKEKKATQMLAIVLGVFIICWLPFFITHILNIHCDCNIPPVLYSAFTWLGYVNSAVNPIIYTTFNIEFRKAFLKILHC
compound,measurement,setting,value
"O=C(CCCN1CCC(O)(c2ccc(Cl)cc2)CC1)c1ccc(F)cc1 [haloperidol, reference compound]",sedation (spontaneous motor activity),[1]; dose of 1 mg/kg,marked sedation
same,potential to elicit extrapyramidal side-effects (apomorphine-induced stereotypy),[2]; doses of 0.5 and 1.0 mg/kg,significant potential to elicit extrapyramidal side-effects
"Clc1ccc(N2CCN(Cc3c[nH]c4ncccc34)CC2)cc1 [Example 5, 3-(4-[4-Chlorophenyl]piperazin-1-yl)methyl-1H-pyrrolo [2,3-b]pyridine]",sedation (spontaneous motor activity),[1]; doses of up to 10-30 mg/kg,no evidence for sedation
same,potential to induce extrapyramidal side-effects (apomorphine-induced stereotypy),[2]; doses up to 1.0 mg/kg,no potential to induce the extrapyramidal side-effects
"COc1ccc(N2CCN(Cc3c[nH]c4ncccc34)CC2)cc1 [Example 2, 3-(4-[4-Methoxyphenyl]piperazin-1-yl)methyl-1H-pyrrolo [2,3-b]pyridine]",D4:D2 ratio,[3],greater than 1150
same,Ki,[4],> 1500 nM
